Measured values taken from US8404729B2, “Heterocyclic tetracyclic tetrahydrofuran derivatives” (Janssen Pharmaceutica, NV, priority 2005, dated 2013).

Biological target: T1, NET (Rattus norvegicus, UniProt Q63380)
T1 construct: Cortex from rat brain was collected and homogenised; from tissue; host or cells: rat brain cortex
Assay: In vitro determination of NET reuptake inhibition ([3H]Nixosetine binding)
Conditions: rat brain cortex membranes, read-out: NET-inhibition (pIC50) (converted)
Experimental: Cortex from rat brain was collected and homogenised using an Ultra-Turrax T25 and a Dual homogeniser in ice-cold homogenising buffer containing Tris, NaCl and KCl (50 mM, 120 mM and 5 mM, respectively, pH 7.4) prior to dilution to an appropriate protein concentration optimised for specific and non-specific binding. […] Membrane-bound activity was detected by filtration through a Packard Filtermate harvester onto GF/B Unifilterplates, washed with ice-cold Tris-HCl buffer, containing NaCl and KCl (50 mM, 120 mM and 4 mM; pH 7.4; 6×0.5 ml). Filters were allowed to dry for 24 h before adding scintillation fluid. Scintillation fluid was allowed to saturate filters for 24 h before counting in a Topcount scintillation counter. Percentage specific bound and competition binding curves were calculated using S-Plus software (Insightful).

T1 sequence (Q63380 1-617): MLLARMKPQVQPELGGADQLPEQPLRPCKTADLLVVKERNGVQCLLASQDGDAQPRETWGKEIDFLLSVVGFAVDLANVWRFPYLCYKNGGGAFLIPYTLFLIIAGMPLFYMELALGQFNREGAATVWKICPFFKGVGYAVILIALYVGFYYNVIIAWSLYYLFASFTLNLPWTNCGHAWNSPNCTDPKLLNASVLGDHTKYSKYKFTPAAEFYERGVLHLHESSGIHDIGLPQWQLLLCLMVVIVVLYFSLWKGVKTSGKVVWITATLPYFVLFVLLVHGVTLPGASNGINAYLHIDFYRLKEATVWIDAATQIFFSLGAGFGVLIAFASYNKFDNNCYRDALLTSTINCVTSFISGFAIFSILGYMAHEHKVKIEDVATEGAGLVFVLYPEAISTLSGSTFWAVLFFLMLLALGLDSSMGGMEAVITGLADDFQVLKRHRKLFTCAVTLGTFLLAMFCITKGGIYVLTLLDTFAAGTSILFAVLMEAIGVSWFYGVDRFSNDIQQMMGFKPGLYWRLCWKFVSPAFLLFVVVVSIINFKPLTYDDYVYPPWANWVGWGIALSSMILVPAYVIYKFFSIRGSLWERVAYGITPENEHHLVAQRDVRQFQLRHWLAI

| Structure (SMILES) | IC50 [nM] |
| --- | --- |
| OC1CCN(C[C@H]2C[C@H]3c4ccccc4Sc4sccc4[C@@H]3O2)C1 (relative stereo) [Compound 23] | 3160 |
| CNCC1CC2c3ccccc3Cc3sccc3C2O1 (stereo not drawn) [Compound 7] | 2510 |
| COC(=O)c1cc2c(s1)Sc1ccccc1[C@H]1C[C@H](CN(C)C)O[C@H]21 [Compound 4] | 631 |
| CN(C)C1CCN(C[C@H]2C[C@H]3c4ccccc4Sc4sccc4[C@@H]3O2)C1 (relative stereo) [Compound 29] | > 10000 |
| CNCC1CC2c3ccccc3Cc3sccc3C2O1 (stereo not drawn) [Compound 6] | 2000 |
| CN(C)C1CCN(C[C@H]2C[C@@H]3c4ccccc4Sc4sccc4C3O2)C1 (relative stereo) [Compound 27] | > 10000 |
| CNCC1CC2c3ccccc3N(Cc3ccccc3)c3ncccc3C2O1 (mixture of isomers) [Compound 37] | 1260 |
| c1ccc2c(c1)Sc1sccc1[C@@H]1O[C@@H](CN3CCC4(CC3)OCCO4)C[C@@H]21 (relative stereo) [Compound 13] | > 10000 |
| c1ccc2c(c1)Sc1sccc1[C@H]1O[C@@H](CN3CCC4(CC3)OCCO4)C[C@H]21 (relative stereo) [Compound 17] | > 10000 |
| CNC[C@H]1C[C@H]2c3ccccc3Sc3sccc3[C@@H]2O1 (relative stereo) [Compound 21] | 126 |
| CN(C)CC1CC2c3ccccc3Cc3sccc3C2O1 (stereo not drawn) [Compound 33] | 1000 |
| OCCC1CCN(CC2CC3c4ccccc4Sc4sccc4C3O2)CC1 (stereo not drawn) [Compound 11] | 7940 |
| CN(C)C[C@H]1C[C@@H]2c3ccccc3Sc3sc(CO)cc3[C@H]2O1 (racemic) [Compound 5] | 398 |
| OC1CCN(C[C@H]2C[C@@H]3c4ccccc4Sc4sccc4[C@H]3O2)C1 (relative stereo) [Compound 16] | 3160 |

Biological target: T2, 5-HT2A receptors (Rattus norvegicus, UniProt P14842)
T2 construct: the tissue used is the frontal cortex of the rat; from tissue; host or cells: rat frontal cortex
Assay: In vitro binding affinity for 5-HT2A receptor (3H-ketanserin radioligand binding)
Conditions: frontal cortex of the rat, read-out: 5-HT2A (pIC50) (converted)
Experimental: The interaction of the compounds of Formula (I) with 5-HT2A and 5-HT2C receptors was assessed in in vitro radioligand binding experiments. […] During the incubation, the radioligands bind to the receptor. When equilibrium of binding is reached, the receptor bound radioactivity is separated from the non-bound radioactivity, and the receptor bound activity is counted. The interaction of the test compounds with the receptors is assessed in competition binding experiments. Various concentrations of the test compound are added to the incubation mixture containing the tissue preparation and the radioligand. Binding of the radioligand will be inhibited by the test compound in proportion to its binding affinity and its concentration. The radioligand used for 5-HT2A binding affinity is ^3H-ketanserin and the tissue used is the frontal cortex of the rat. The radioligand used for 5-HT2c binding affinity is ^3H-mesulergine and the tissue used is the choroid plexus of the pig.

T2 sequence (P14842 whole entry): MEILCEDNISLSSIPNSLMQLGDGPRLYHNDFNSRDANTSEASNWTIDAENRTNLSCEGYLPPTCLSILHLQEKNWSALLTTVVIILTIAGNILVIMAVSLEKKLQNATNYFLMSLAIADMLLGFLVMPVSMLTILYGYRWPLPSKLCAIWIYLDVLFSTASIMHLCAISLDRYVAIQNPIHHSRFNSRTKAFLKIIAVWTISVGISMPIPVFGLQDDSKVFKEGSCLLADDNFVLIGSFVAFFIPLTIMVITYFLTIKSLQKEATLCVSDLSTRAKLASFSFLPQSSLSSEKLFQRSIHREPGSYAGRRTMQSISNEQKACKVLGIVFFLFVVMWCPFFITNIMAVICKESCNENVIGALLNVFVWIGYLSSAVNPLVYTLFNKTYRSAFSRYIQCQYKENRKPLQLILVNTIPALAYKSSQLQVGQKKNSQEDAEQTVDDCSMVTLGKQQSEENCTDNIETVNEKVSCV

| Structure (SMILES) | IC50 [nM] |
| --- | --- |
| OC1CCN(C[C@H]2C[C@H]3c4ccccc4Sc4sccc4[C@@H]3O2)C1 (relative stereo) [Compound 23] | < 10 |
| CNCC1CC2c3ccccc3Cc3sccc3C2O1 (stereo not drawn) [Compound 7] | 251 |
| CNCC1CC2c3ccccc3Cc3sccc3C2O1 (stereo not drawn) [Compound 6] | 39.8 |
| c1ccc2c(c1)Sc1sccc1[C@@H]1O[C@@H](CN3CCC4(CC3)OCCO4)C[C@@H]21 (relative stereo) [Compound 13] | 5.01 |
| c1ccc2c(c1)Sc1sccc1[C@H]1O[C@@H](CN3CCC4(CC3)OCCO4)C[C@H]21 (relative stereo) [Compound 17] | 39.8 |
| CNC[C@H]1C[C@H]2c3ccccc3Sc3sccc3[C@@H]2O1 (relative stereo) [Compound 21] | < 10 |
| CN(C)CC1CC2c3ccccc3Cc3sccc3C2O1 (stereo not drawn) [Compound 33] | 100 |
| OCCC1CCN(CC2CC3c4ccccc4Sc4sccc4C3O2)CC1 (stereo not drawn) [Compound 11] | 3.16 |
| OC1CCN(C[C@H]2C[C@@H]3c4ccccc4Sc4sccc4[C@H]3O2)C1 (relative stereo) [Compound 16] | 20 |

Biological target: T3, human Dopamine D2L receptor (Homo sapiens, UniProt P14416)
T3 construct: expressed in transfected cells; host or cells: CHO cells
Assay: In vitro binding affinity for human D2L receptor ([3H]Spiperone)
Conditions: membranes of human D2L receptor-transfected CHO cells, read-out: D2 (pIC50) (converted)
Experimental: Frozen membranes of human Dopamine D2L receptor-transfected CHO cells were thawed, briefly homogenised using an Ultra-Turrax T25 homogeniser and diluted in Tris-HCl assay buffer containing NaCl, CaCl2, MgCl2, KCl (50, 120, 2, 1, and 5 mM respectively, adjusted to pH 7.7 with HCl) to an appropriate protein concentration optimised for specific and non-specific binding. Radioligand [^3H]Spiperone (NEN, specific activity ˜70 Ci/mmol) was diluted in assay buffer at a concentration of 2 nmol/L. Prepared radioligand (50 μl), along with 50 μl of either the 10% DMSO control, Butaclamol (10^−6 mol/l final concentration), or compound of interest, was then incubated (30 min, 37° C.) with 400 μl of the prepared membrane solution. Membrane-bound activity was filtered through a Packard Filtermate harvester onto GF/B Unifilterplates and washed with ice-cold Tris-HCl buffer (50 mM; pH 7.7; 6×0.5 ml). Filters were allowed to dry before adding scintillation fluid and counting in a Topcount scintillation counter. Percentage specific bound and competition binding curves were calculated using S-Plus software (Insightful).

T3 sequence (P14416 whole entry): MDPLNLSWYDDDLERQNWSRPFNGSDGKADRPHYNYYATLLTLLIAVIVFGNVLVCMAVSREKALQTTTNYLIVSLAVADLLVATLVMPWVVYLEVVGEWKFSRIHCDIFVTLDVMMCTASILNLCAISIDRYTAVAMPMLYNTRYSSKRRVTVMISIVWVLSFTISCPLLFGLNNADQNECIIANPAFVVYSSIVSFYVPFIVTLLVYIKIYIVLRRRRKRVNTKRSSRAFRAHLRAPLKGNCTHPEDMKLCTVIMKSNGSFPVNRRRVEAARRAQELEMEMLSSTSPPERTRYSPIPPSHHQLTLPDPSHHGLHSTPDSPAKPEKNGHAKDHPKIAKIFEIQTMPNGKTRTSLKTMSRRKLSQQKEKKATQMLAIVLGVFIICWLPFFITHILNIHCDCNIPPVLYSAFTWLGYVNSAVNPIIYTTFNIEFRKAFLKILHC

| Structure (SMILES) | IC50 [nM] |
| --- | --- |
| OC1CCN(C[C@H]2C[C@H]3c4ccccc4Sc4sccc4[C@@H]3O2)C1 (relative stereo) [Compound 23] | 251 |
| CNCC1CC2c3ccccc3Cc3sccc3C2O1 (stereo not drawn) [Compound 7] | 3160 |
| COC(=O)c1cc2c(s1)Sc1ccccc1[C@H]1C[C@H](CN(C)C)O[C@H]21 [Compound 4] | 3980 |
| CN(C)C1CCN(C[C@H]2C[C@H]3c4ccccc4Sc4sccc4[C@@H]3O2)C1 (relative stereo) [Compound 29] | 794 |
| CNCC1CC2c3ccccc3Cc3sccc3C2O1 (stereo not drawn) [Compound 6] | 2510 |
| CN(C)C1CCN(C[C@H]2C[C@@H]3c4ccccc4Sc4sccc4C3O2)C1 (relative stereo) [Compound 27] | 398 |
| CNCC1CC2c3ccccc3N(Cc3ccccc3)c3ncccc3C2O1 (mixture of isomers) [Compound 37] | 1580 |
| c1ccc2c(c1)Sc1sccc1[C@@H]1O[C@@H](CN3CCC4(CC3)OCCO4)C[C@@H]21 (relative stereo) [Compound 13] | 20 |
| c1ccc2c(c1)Sc1sccc1[C@H]1O[C@@H](CN3CCC4(CC3)OCCO4)C[C@H]21 (relative stereo) [Compound 17] | 158 |
| CNC[C@H]1C[C@H]2c3ccccc3Sc3sccc3[C@@H]2O1 (relative stereo) [Compound 21] | 501 |
| CN(C)CC1CC2c3ccccc3Cc3sccc3C2O1 (stereo not drawn) [Compound 33] | 794 |
| OCCC1CCN(CC2CC3c4ccccc4Sc4sccc4C3O2)CC1 (stereo not drawn) [Compound 11] | 6.31 |
| CN(C)C[C@H]1C[C@@H]2c3ccccc3Sc3sc(CO)cc3[C@H]2O1 (racemic) [Compound 5] | 200 |
| OC1CCN(C[C@H]2C[C@@H]3c4ccccc4Sc4sccc4[C@H]3O2)C1 (relative stereo) [Compound 16] | 158 |

Biological target: T4, 5-HT2C receptors (Sus scrofa, UniProt K7GSR7)
T4 construct: the tissue used is the choroid plexus of the pig; from tissue; host or cells: pig choroid plexus
T4 sequence (K7GSR7 1-457): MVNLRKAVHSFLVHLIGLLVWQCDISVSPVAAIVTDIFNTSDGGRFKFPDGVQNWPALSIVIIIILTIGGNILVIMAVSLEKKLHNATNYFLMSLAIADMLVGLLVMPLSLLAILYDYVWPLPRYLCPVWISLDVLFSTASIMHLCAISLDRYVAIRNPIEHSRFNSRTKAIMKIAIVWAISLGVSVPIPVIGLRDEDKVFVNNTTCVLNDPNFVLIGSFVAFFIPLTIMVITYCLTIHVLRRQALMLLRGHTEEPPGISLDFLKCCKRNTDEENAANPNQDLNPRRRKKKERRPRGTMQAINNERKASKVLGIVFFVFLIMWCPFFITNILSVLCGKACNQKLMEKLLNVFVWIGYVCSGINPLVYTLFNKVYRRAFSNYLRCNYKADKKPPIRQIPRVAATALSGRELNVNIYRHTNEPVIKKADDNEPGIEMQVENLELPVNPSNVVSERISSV
Assay: In vitro binding affinity for 5-HT2C receptor (3H-mesulergine radioligand binding)
Conditions: choroid plexus of the pig, read-out: 5-HT2C (pIC50) (converted)
Experimental: The interaction of the compounds of Formula (I) with 5-HT2A and 5-HT2C receptors was assessed in in vitro radioligand binding experiments. In general, a low concentration of a radioligand with a high binding affinity for the receptor is incubated with a sample of a tissue preparation enriched in a particular receptor (1 to 5 mg tissue) in a buffered medium (0.2 to 5 ml). During the incubation, the radioligands bind to the receptor. When equilibrium of binding is reached, the receptor bound radioactivity is separated from the non-bound radioactivity, and the receptor bound activity is counted. The interaction of the test compounds with the receptors is assessed in competition binding experiments. Various concentrations of the test compound are added to the incubation mixture containing the tissue preparation and the radioligand. Binding of the radioligand will be inhibited by the test compound in proportion to its binding affinity and its concentration. The radioligand used for 5-HT2A binding affinity is ^3H-ketanserin and the tissue used is the frontal cortex of the rat. The radioligand used for 5-HT2c binding affinity is ^3H-mesulergine and the tissue used is the choroid plexus of the pig.

| Structure (SMILES) | IC50 [nM] |
| --- | --- |
| OC1CCN(C[C@H]2C[C@H]3c4ccccc4Sc4sccc4[C@@H]3O2)C1 (relative stereo) [Compound 23] | 3.98 |
| CNCC1CC2c3ccccc3Cc3sccc3C2O1 (stereo not drawn) [Compound 7] | 20 |
| COC(=O)c1cc2c(s1)Sc1ccccc1[C@H]1C[C@H](CN(C)C)O[C@H]21 [Compound 4] | 158 |
| CN(C)C1CCN(C[C@H]2C[C@H]3c4ccccc4Sc4sccc4[C@@H]3O2)C1 (relative stereo) [Compound 29] | 251 |
| CNCC1CC2c3ccccc3Cc3sccc3C2O1 (stereo not drawn) [Compound 6] | 39.8 |
| CN(C)C1CCN(C[C@H]2C[C@@H]3c4ccccc4Sc4sccc4C3O2)C1 (relative stereo) [Compound 27] | 50.1 |
| CNCC1CC2c3ccccc3N(Cc3ccccc3)c3ncccc3C2O1 (mixture of isomers) [Compound 37] | 100 |
| c1ccc2c(c1)Sc1sccc1[C@@H]1O[C@@H](CN3CCC4(CC3)OCCO4)C[C@@H]21 (relative stereo) [Compound 13] | 100 |
| c1ccc2c(c1)Sc1sccc1[C@H]1O[C@@H](CN3CCC4(CC3)OCCO4)C[C@H]21 (relative stereo) [Compound 17] | 100 |
| CNC[C@H]1C[C@H]2c3ccccc3Sc3sccc3[C@@H]2O1 (relative stereo) [Compound 21] | 3.98 |
| CN(C)CC1CC2c3ccccc3Cc3sccc3C2O1 (stereo not drawn) [Compound 33] | 50.1 |
| OCCC1CCN(CC2CC3c4ccccc4Sc4sccc4C3O2)CC1 (stereo not drawn) [Compound 11] | 39.8 |
| CN(C)C[C@H]1C[C@@H]2c3ccccc3Sc3sc(CO)cc3[C@H]2O1 (racemic) [Compound 5] | 20 |
| OC1CCN(C[C@H]2C[C@@H]3c4ccccc4Sc4sccc4[C@H]3O2)C1 (relative stereo) [Compound 16] | 15.8 |
